Assay results taken from ChEMBL document CHEMBL1201862, “PubChem BioAssay data set” (2004).
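Interpolation was linear, between the two tested concentrations surrounding the appropriate level; five concentrations were tested over 48 hours in 96-well plates. The concentration for 50% growth inhibition is given as GI50.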 The source made the active and inactive calls. Rule as the data show it: active = GI50 up to about 1.1 µM and inactive = higher.

Columns and labels:
Assay in all cases: NCI tumour cell line growth inhibition, 48 h
SK-OV-3 = tested on: SK-OV-3
M14 = tested on: M14
OVCAR-3 = tested on: OVCAR-3
NCI-H226 = tested on: NCI-H226
ACHN = tested on: ACHN
SNB-75 = tested on: SNB-75
TK-10 = tested on: TK-10
NCI-H23 = tested on: NCI-H23
SK-MEL-28 = tested on: SK-MEL-28
U-251 = tested on: U-251
CCRF-CEM = tested on: CCRF-CEM
Malme-3M = tested on: Malme-3M
LOX IMVI = tested on: LOX IMVI
HOP-62 = tested on: HOP-62
SF-295 = tested on: SF-295
EKVX = tested on: EKVX
OVCAR-5 = tested on: OVCAR-5
SK-MEL-2 = tested on: SK-MEL-2

Measured: GI50

CC1CC[C@]2(C(=O)O)CCC3(C)C(=CC(=O)C4[C@@]5(C)CCC(=O)C(C)(C)C5CC[C@]43C)[C@@H]2[C@H]1C (some centres not stated)
inactive: SK-OV-3 34.5 µM | M14 29.5 µM | OVCAR-3 17.4 µM | NCI-H226 25.2 µM | ACHN 21 µM | SNB-75 35.5 µM | TK-10 28.3 µM | NCI-H23 25.1 µM | SK-MEL-28 18 µM | U-251 27.4 µM | CCRF-CEM 14.4 µM | Malme-3M 28.8 µM | LOX IMVI 15.9 µM | HOP-62 22.1 µM | SF-295 31 µM | EKVX 31.6 µM

C=CC1(C)/C(=N\O)C(C)(CC)C(=O)N1O (configuration not stated)
inactive: OVCAR-5 > 100 µM | SK-OV-3 > 100 µM | M14 > 100 µM | OVCAR-3 > 100 µM | ACHN > 100 µM | SNB-75 > 100 µM | TK-10 > 100 µM | NCI-H23 > 100 µM | SK-MEL-2 > 100 µM | SK-MEL-28 > 100 µM | U-251 > 100 µM | CCRF-CEM > 100 µM | Malme-3M > 100 µM | LOX IMVI > 100 µM | HOP-62 > 100 µM | SF-295 > 100 µM | EKVX > 100 µM

Cc1cc(OCC(O)CO)ccc1-c1ccccc1 (configuration not stated)
inactive: M14 > 100 µM | OVCAR-3 > 100 µM | NCI-H226 > 100 µM | ACHN > 100 µM | SNB-75 > 100 µM | TK-10 > 100 µM | NCI-H23 > 100 µM | SK-MEL-2 > 100 µM | SK-MEL-28 > 100 µM | U-251 54.3 µM | CCRF-CEM 35 µM | Malme-3M > 100 µM | EKVX 80.2 µM

COCOCC/C=C/C=O
inactive: OVCAR-5 > 100 µM | SK-OV-3 > 100 µM | M14 > 100 µM | OVCAR-3 > 100 µM | ACHN > 100 µM | SNB-75 > 100 µM | TK-10 > 100 µM | NCI-H23 > 100 µM | SK-MEL-2 > 100 µM | SK-MEL-28 > 100 µM | U-251 > 100 µM | CCRF-CEM > 100 µM | Malme-3M > 100 µM | LOX IMVI > 100 µM | SF-295 > 100 µM | EKVX > 100 µM

O=[N+]([O-])c1ccc2nc3ccscc-3c2c1
inactive: OVCAR-5 35.3 µM | SK-OV-3 30.7 µM | M14 16 µM | OVCAR-3 7.94 µM | NCI-H226 20.9 µM | ACHN 13.6 µM | TK-10 20.9 µM | NCI-H23 11.7 µM | SK-MEL-2 6.75 µM | SK-MEL-28 27.8 µM | U-251 7.76 µM | CCRF-CEM 5 µM | Malme-3M 29 µM | LOX IMVI 18.7 µM | HOP-62 17.9 µM | SF-295 24.2 µM | EKVX 9.93 µM

COc1cc(C)c2c(c1C)OC(=O)c1c(C)c(Cl)c(O)c(C=O)c1O2
inactive: OVCAR-5 27.7 µM | SK-OV-3 23.4 µM | M14 18.4 µM | OVCAR-3 1.63 µM | NCI-H226 23.2 µM | ACHN 14.7 µM | SNB-75 14.3 µM | TK-10 29 µM | NCI-H23 14.7 µM | U-251 6.41 µM | CCRF-CEM 9.18 µM | Malme-3M 15.5 µM | LOX IMVI 16 µM | HOP-62 20.3 µM | SF-295 > 10 µM | EKVX 10.3 µM

CC1(C)C(=O)C(C)(C)C1=NNC(N)=S
inactive: OVCAR-5 > 100 µM | SK-OV-3 > 100 µM | M14 > 100 µM | OVCAR-3 > 100 µM | NCI-H226 > 100 µM | ACHN > 100 µM | SNB-75 > 100 µM | TK-10 > 100 µM | NCI-H23 > 100 µM | SK-MEL-28 > 100 µM | U-251 > 100 µM | Malme-3M > 100 µM | LOX IMVI > 100 µM | HOP-62 > 100 µM | SF-295 > 100 µM

CC(=O)CCn1[nH]c(=O)c(Cl)c(Cl)c1=O
inactive: OVCAR-5 > 100 µM | M14 > 100 µM | OVCAR-3 > 100 µM | NCI-H226 > 100 µM | ACHN > 100 µM | SNB-75 > 100 µM | TK-10 > 100 µM | NCI-H23 > 100 µM | SK-MEL-2 > 100 µM | SK-MEL-28 > 100 µM | CCRF-CEM > 100 µM | Malme-3M > 100 µM | LOX IMVI > 100 µM | HOP-62 > 100 µM | SF-295 > 100 µM | EKVX > 100 µM

Nc1nc(N)c2ncn(CCOC(c3ccccc3)P(=O)(O)O)c2n1 (configuration not stated)
inactive: OVCAR-5 > 100 µM | SK-OV-3 > 100 µM | OVCAR-3 > 100 µM | NCI-H226 > 100 µM | ACHN > 100 µM | SNB-75 > 100 µM | TK-10 > 100 µM | NCI-H23 > 100 µM | SK-MEL-2 > 100 µM | SK-MEL-28 > 100 µM | U-251 > 100 µM | CCRF-CEM > 100 µM | Malme-3M > 100 µM | LOX IMVI > 100 µM | SF-295 > 100 µM | EKVX > 100 µM
